Results published in PubChem BioAssay AID1845217 (Molecular Pharmacology Branch, DTP, NCI, 2023).

System: VA-ES-BJ tumor spheroid viability
Assay: Anticancer human tumor VA-ES-BJ cell line growth inhibition;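 note: spheroids exposed to compounds for seven days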;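 for viability, T/C: percent of DMSO vehicle control viability so 100% = untreated growth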
Settings: spheroids with HUVEC and MSC; for IC50: curve of first compound; for viability, T/C: stronger effect = lower value
Procedure, shortened: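 Single agents and combinations were tested on spheroids built from tumor cells plus HUVEC and hMSC, at half-log dilutions starting at or near clinical Cmax, else 10 microM; final DMSO 0.25% (v/v).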

For Cc1sc2c(c1C)C(c1ccc(Cl)cc1)=NC(CC(=O)Nc1ccc(O)cc1)c1nnc(C)n1-2 (stereo not given) + COc1cc2c(cc1O)CCNC21CSC2c3c(OC(C)=O)c(C)c4c(c3C(COC1=O)N1C(O)C3Cc5cc(C)c(OC)c(O)c5C(C21)N3C)OCO4, the IC50 (second compound 30 pM) was 78 nM, the IC50 (second compound 94.9 pM) was 58.6 nM and the IC50 (second compound 0.0003 µM) was < 9.49 nM. For the same compound, the IC50 (second compound 0.000949 µM) was < 9.49 nM, the IC50 (second compound 0.003 µM) was < 9.49 nM and the viability, T/C (second compound 30 pM, first compound 0.00949 µM) was 83.6%. It also gave a viability, T/C (second compound 30 pM, first compound 0.03 µM) of 65.8%, a viability, T/C (second compound 30 pM, first compound 0.0949 µM) of 48.9% and a viability, T/C (second compound 30 pM, first compound 0.3 µM) of 27.4%. The viability, T/C (second compound 30 pM, first compound 0.949 µM) was 24%, the viability, T/C (second compound 30 pM, first compound 3 µM) was 17.5% and the viability, T/C (second compound 94.9 pM, first compound 0.00949 µM) was 79.4%. It also gave a viability, T/C (second compound 94.9 pM, first compound 0.03 µM) of 60.9%, a viability, T/C (second compound 94.9 pM, first compound 0.0949 µM) of 42.3% and a viability, T/C (second compound 94.9 pM, first compound 0.3 µM) of 27.3%. For the same compound, the viability, T/C (second compound 94.9 pM, first compound 0.949 µM) was 21.3%, the viability, T/C (second compound 94.9 pM, first compound 3 µM) was 10.5% and the viability, T/C (second compound 0.0003 µM, first compound 0.00949 µM) was 38.7%. It also gave a viability, T/C (second compound 0.0003 µM, first compound 0.03 µM) of 32.4%, a viability, T/C (second compound 0.0003 µM, first compound 0.0949 µM) of 23.7% and a viability, T/C (second compound 0.0003 µM, first compound 0.3 µM) of 13.7%. For the same compound, the viability, T/C (second compound 0.0003 µM, first compound 0.949 µM) was 6.9%, the viability, T/C (second compound 0.0003 µM, first compound 3 µM) was 2.06% and the viability, T/C (second compound 0.000949 µM, first compound 0.00949 µM) was 8.09%. For the same compound, the viability, T/C (second compound 0.000949 µM, first compound 0.03 µM) was 2.88%, the viability, T/C (second compound 0.000949 µM, first compound 0.0949 µM) was 5.43% and the viability, T/C (second compound 0.000949 µM, first compound 0.3 µM) was 1.01%. For the same compound, the viability, T/C (second compound 0.000949 µM, first compound 0.949 µM) was 0.08%, the viability, T/C (second compound 0.000949 µM, first compound 3 µM) was 0.14% and the viability, T/C (second compound 0.003 µM, first compound 0.00949 µM) was 1.18%. It also gave a viability, T/C (second compound 0.003 µM, first compound 0.03 µM) of 1.31%, a viability, T/C (second compound 0.003 µM, first compound 0.0949 µM) of 1.36% and a viability, T/C (second compound 0.003 µM, first compound 0.3 µM) of 1.87%. For the same compound, the viability, T/C (second compound 0.003 µM, first compound 0.949 µM) was 2.19% and the viability, T/C (second compound 0.003 µM, first compound 3 µM) was 3.69%.
O=C(c1cc(Cc2n[nH]c(=O)c3ccccc23)ccc1F)N1CCN(C(=O)C2CC2)CC1 + Cn1nnc2c(C(N)=O)ncn2c1=O was tested, and the IC50 (second compound 1 µM) was > 30000 nM, the IC50 (second compound 3.16 µM) was 25400 nM and the IC50 (second compound 10 µM) was 9760 nM. For the same compound, the IC50 (second compound 31.6 µM) was 3430 nM, the IC50 (second compound 100 µM) was 669 nM and the viability, T/C (second compound 1 µM, first compound 0.0949 µM) was 114%. It also gave a viability, T/C (second compound 1 µM, first compound 0.3 µM) of 110%, a viability, T/C (second compound 1 µM, first compound 0.949 µM) of 111% and a viability, T/C (second compound 1 µM, first compound 3 µM) of 110%. For the same compound, the viability, T/C (second compound 1 µM, first compound 9.49 µM) was 75%, the viability, T/C (second compound 1 µM, first compound 30 µM) was 58.5% and the viability, T/C (second compound 3.16 µM, first compound 0.0949 µM) was 103%. The viability, T/C (second compound 3.16 µM, first compound 0.3 µM) was 110%, the viability, T/C (second compound 3.16 µM, first compound 0.949 µM) was 96.8% and the viability, T/C (second compound 3.16 µM, first compound 3 µM) was 106%. For the same compound, the viability, T/C (second compound 3.16 µM, first compound 9.49 µM) was 78.8%, the viability, T/C (second compound 3.16 µM, first compound 30 µM) was 45.2% and the viability, T/C (second compound 10 µM, first compound 0.0949 µM) was 110%. It also gave a viability, T/C (second compound 10 µM, first compound 0.3 µM) of 113%, a viability, T/C (second compound 10 µM, first compound 0.949 µM) of 111% and a viability, T/C (second compound 10 µM, first compound 3 µM) of 87.4%. For the same compound, the viability, T/C (second compound 10 µM, first compound 9.49 µM) was 51.9%, the viability, T/C (second compound 10 µM, first compound 30 µM) was 17% and the viability, T/C (second compound 31.6 µM, first compound 0.0949 µM) was 102%. For the same compound, the viability, T/C (second compound 31.6 µM, first compound 0.3 µM) was 112%, the viability, T/C (second compound 31.6 µM, first compound 0.949 µM) was 100% and the viability, T/C (second compound 31.6 µM, first compound 3 µM) was 54%. The viability, T/C (second compound 31.6 µM, first compound 9.49 µM) was 16.8%, the viability, T/C (second compound 31.6 µM, first compound 30 µM) was 8.16% and the viability, T/C (second compound 100 µM, first compound 0.0949 µM) was 77%. The viability, T/C (second compound 100 µM, first compound 0.3 µM) was 72%, the viability, T/C (second compound 100 µM, first compound 0.949 µM) was 40% and the viability, T/C (second compound 100 µM, first compound 3 µM) was 15.7%. It also gave a viability, T/C (second compound 100 µM, first compound 9.49 µM) of 7.74% and a viability, T/C (second compound 100 µM, first compound 30 µM) of 6.29%.
